Experimental data reported in patent publication US4668397A, “Novel cyclic octapeptide, method for production of said octapeptide, and ion extracting/separating agent using said octapeptide as principal component” (Agency of Industrial Science & Technology, priority 1984, dated 1987).
Non-standard residues stand in square brackets, D forms with d. Residues, ends and D or L forms follow the SMILES beside them. *: point of attachment. Orn = NCCC[C@H](N)C(=O)O; Cbz = O=C(OCc1ccccc1)*; Boc = CC(C)(C)OC(=O)*; OBn = c1ccc(CO*)cc1; Sar = CNCC(=O)O

Key:
[1] = Ion transfer through chloroform phase between two water phases in a U-shaped tube; conditions: for Amount of ions transferred: K, 200 μM in chloroform phase, pH 7.5, 10 hours; for transferring ability for potassium ion: from Table 2
Protocol: (§1) In a U-shaped tube 15 mm in inside diameter, two water phases (a), (b) (each 10 ml) were separated by an intervening chloroform phase (15 ml). In the water phase (a), a chloride of potassium ions and calcium ions (10 mM), picric acid (25 mM), and good buffer HEPES (10 mM) were dissolved and adjusted to pH 7.5 with lithium hydroxide. In the chloroform phase, the compound of this invention was dissolved in a concentration of 200 μM. The two water phases (a), (b) were stirred with a mechanical stirrer and the chloroform phase was stirred with a magnetic stirrer. After 10 hours of stirring, the amount of potassium ions or calcium ions which had been transferred from the water phase (a) through the chloroform phase into the water phase (b) was determined based on the absorption of picrate anion. For comparison, the procedure described above was repeated by using a naturally occurring calcium-ion ionophore A 23187, the cyclic tetrapeptide, i.e. cyclo(glycyl-ε-benzyloxycarbonyl-L-lysyl-sarcosyl-L-prolyl) (D-1), the linear octapeptide, i.e. tertiary butyloxycarbonylglycyl-ε-benzyloxycarbonyl-L-lysyl-sarcosyl-L-propyl-glycyl-ε-benzyloxycarbonyl-L-lysyl-sarcosyl-L-proline methyl ester (E-1), and using no substance dissolved in the chloroform phase.

[2] = Ion transfer through chloroform phase (liquid membrane) between two water phases in a U-shaped tube; conditions: for Amount of ions transferred: Ca^2+, 200 μM in chloroform phase, pH 7.5, 10 hours; for transferring ability for calcium ion: from Table 2
Protocol: as §1

[3] = Extraction equilibrium constant, chloroform / aqueous metal ion chloride and picric acid, absorbance of picrate anion; conditions: chloroform/water, pH 7.4, average of five concentrations
Protocol: The compound (C-1) of this invention obtained in Example 1 was dissolved in concentrations of […] in chloroform. Then 5-ml portions of each of the five solutions so prepared were mixed one each with 5-ml aqueous solutions (pH 7.4) of metallic ion chloride (10 mM), picric acid (25 mM), and good buffer HEPES (10 mM) and shaken for 30 minutes. The shaken mixtures were left stading for one hour. Then, based on the absorbance of picrate anion in the chloroform phase, the extraction equilibrium constants of the compound (C-1) of this invention for the various ions were determined. The results so obtained were compared with those of the comparative cyclic tetrapeptide, i.e. cyclo(glycyl-ε-benzyloxycarbonyl-L-lysyl-sarcosyl-L-prolyl) (D-1), and the linear octapeptide, i.e. tertiary butyloxycarbonylglycyl-ε-benzyloxycarbonyl-L-lysyl-sarcosyl-L-prolylglycyl-ε-benzyloxycarbonyl-[…]-L-proline methyl ester (E-1).
The results expressed as logarithms of the average values obtained by using the five chloroform solutions of varying concentration are shown in Table 1.

[4] = Solution extraction, separation from magnesium; conditions: after extraction and recovery of calcium ion; sample with 1 g magnesium picrate
Protocol: (§2) The amount 100 ml of chloroform solution having dissolved therein 1 g of the compound (C-1) of this invention obtained in Example 1 and 100 ml of a sample solution containing 1 g of magnesium picrate and 100 mg of […] (adjusted to pH 6.9 with acetic acid and sodium acetate) were thoroughly shaken and then left standing for 30 minutes. From the resultant mixture, the chloroform phase was collected. The chloroform phase was washed with 100 ml of an aqueous solution containing 0.01M of lithium picrate (adjusted to pH 6.9 with acetic acid and sodium acetate), followed by collection of chloroform phase. This washing operation was repeated three times to collect the chloroform phase. This chloroform phase was thoroughly shaken with 100 ml of an aqueous solution containing 2M of ammonium chloride and 2M of hydrochloric acid. The shaken mixture was left standing at rest for 30 minutes, followed by collection of the aqueous phase. The aqueous phase was tested for recovery of calcium ion. […] At that time, the concentration of magnesium was 10^-3 times the initial concentration. Thus, by the method of solution extraction using the compound of this invention, calcium ions could be efficiently separated from a large amount of magnesium ions.

[5] = Solution extraction and recovery of calcium ion; conditions: 1 g compound in 100 ml chloroform; sample pH 6.9; back-extraction with 2M ammonium chloride and 2M hydrochloric acid
Protocol: as §2

| Structure (SMILES) | Amount of ions transferred [1] | Amount of ions transferred [2] | Logarithm of ion extraction equilibrium constant ([3]; Ba^2+) | Logarithm of ion extraction equilibrium constant ([3]; Ca^2+) | Logarithm of ion extraction equilibrium constant ([3]; K^+) | Logarithm of ion extraction equilibrium constant ([3]; Mg^2+) | Logarithm of ion extraction equilibrium constant ([3]; Na^+) | Logarithm of ion extraction equilibrium constant ([3]; Rb^+) | concentration of magnesium relative to the initial concentration [4] | recovery ratio of calcium ion [5] | transferring ability for potassium ion [1] | transferring ability for calcium ion [2] |
| --- | --- | --- | --- | --- | --- | --- | --- | --- | --- | --- | --- | --- |
| CNc1ccc2oc(C[C@H]3O[C@@]4(CC[C@H]3C)O[C@H]([C@H](C)C(=O)c3ccc[nH]3)[C@H](C)C[C@H]4C)nc2c1C(=O)O [Compound A23187] | 0.1 μ · mol | 4.7 μ · mol |  |  |  |  |  |  |  |  |  |  |
| CN1CC(=O)N2CCC[C@H]2C(=O)NCC(=O)N[C@@H](CCCCNC(=O)OCc2ccccc2)C(=O)N(C)CC(=O)N2CCC[C@H]2C(=O)NCC(=O)N[C@@H](CCCCNC(=O)OCc2ccccc2)C1=O [Compound C-1, cyclo(glycyl-ε-benzyloxycarbonyl-L-lysyl-sarcosyl-L-prolyl)2] (cyclo(GK(Cbz)[Sar]PGK(Cbz)[Sar]P)) | 0.5 μ · mol | 5.4 μ · mol | 6.0 | 5.6 | 2.6 | 3.4 | 2.3 | 2.6 | 10^-3 times the initial concentration | 95% |  |  |
| CN1CC(=O)N2CCC[C@H]2C(=O)NCC(=O)N[C@@H](CCCNC(=O)OCc2ccccc2)C(=O)N(C)CC(=O)N2CCC[C@H]2C(=O)NCC(=O)N[C@@H](CCCNC(=O)OCc2ccccc2)C1=O [Compound C-2, cyclo(glycyl-δ-benzyloxycarbonyl-L-ornithyl-sarcosyl-L-prolyl)2] (cyclo(G[Orn](Cbz)[Sar]PG[Orn](Cbz)[Sar]P)) | 0.4 μ · mol | 5.1 μ · mol |  |  |  |  |  |  |  |  |  |  |
| CN1CC(=O)N2CCC[C@H]2C(=O)NCC(=O)N[C@@H](CCC(=O)OCc2ccccc2)C(=O)N(C)CC(=O)N2CCC[C@H]2C(=O)NCC(=O)N[C@@H](CCC(=O)OCc2ccccc2)C1=O [Compound C-3, cyclo(glycyl-γ-benzyl-L-glutamylsarcosyl-L-prolyl)2] (cyclo(E(OBn)[Sar]PGE(OBn)[Sar]PG)) | 0.3 μ · mol | 4.9 μ · mol |  |  |  |  |  |  |  |  |  |  |
| CN1CC(=O)N2CCC[C@H]2C(=O)NCC(=O)N[C@@H](CC(=O)OCc2ccccc2)C(=O)N(C)CC(=O)N2CCC[C@H]2C(=O)NCC(=O)N[C@@H](CC(=O)OCc2ccccc2)C1=O [Compound C-4, cyclo(glycyl-β-benzyl-L-aspartylsarcosyl-L-prolyl)2] (cyclo(D(OBn)[Sar]PGD(OBn)[Sar]PG)) | 0.3 μ · mol | 4.8 μ · mol |  |  |  |  |  |  |  |  |  |  |
| CN1CC(=O)N2CCC[C@H]2C(=O)NCC(=O)N[C@@H](CCCCNC(=O)OCc2ccccc2)C1=O [Compound D-1, cyclo(glycyl-ε-benzyloxycarbonyl-L-lysyl-sarcosyl-L-prolyl)] (cyclo(GK(Cbz)[Sar]P)) | 0.1 μ · mol | 0.4 μ · mol | 1.9 | 1.7 | 1.2 | 1.2 | 1.1 | 1.2 |  |  | virtually no transferring ability | virtually no transferring ability |
| COC(=O)[C@@H]1CCCN1C(=O)CN(C)C(=O)[C@H](CCCCNC(=O)OCc1ccccc1)NC(=O)CNC(=O)[C@@H]1CCCN1C(=O)CN(C)C(=O)[C@H](CCCCNC(=O)OCc1ccccc1)NC(=O)CNC(=O)OC(C)(C)C [Compound E-1, tertiary butyloxycarbonylglycyl-ε-benzyloxycarbonyl-L-lysyl-sarcosyl-L-propyl-glycyl-ε-benzyloxycarbonyl-L-lysyl-sarcosyl-L-proline methyl ester] (Boc-GK(Cbz)[Sar]PGK(Cbz)[Sar]P-OMe) | 0.2 μ · mol | 0.3 μ · mol | 1.3 | 1.1 | 0.9 | 0.9 | 0.9 | 0.9 |  |  | virtually no transferring ability | virtually no transferring ability |
